From patent US20140243374A1, “Novel Sulfonamides” (The Brigham and Women's Hospital, Inc., priority 2011, published 2014)
pIC50: −log10 of the molar value. Values joined by “and” are separate entries in the source; they are usually repeats but may differ in a detail not shown here. Equal entries are not always repeated. Structures can show the parent of a compound that is named as a salt.

Key:
Format in all cases: cell-based
[1] = molecular target: T1, γ-secretase (cleavage of APP, Aβ42) (Homo sapiens, UniProt P49768); experiment: Aβ (1-42) cellular assay (Aβ ELISA, HEK AP-GL-T1 6 cells); settings: cellular Aβ42 ELISA, 24 h compound treatment
T1 construct: endogenous in cells; host or cells: HEK AP-GL-T16 luciferase reporter cells (tetracycline-induced APP substrate)
Procedure: Aβ (1-42) Cellular Assay.
The following assay was used to determine the extent to which the compounds of interest inhibit the cleavage of APP in vivo. AβELISA is a commercial fluorometric kit from Biosource (Invitrogen 89344). Luciferase reporter HEK AP-GL-T1 6 cells were plated at 50,000 cells/well in 96 well plates in DMEM media containing 10% tetracyclin free […], 250 μg/mL zeocin, 200 μg/mL hygromycin, and 5 μg/mL blasticidin. Compounds were added 24 h after plating and APP processing is induced simultaneously by addition of tetracycline. Following a 24 h compound treatment, […] of conditioned cell media is collected, mixed with ELISA diluent buffer containing 2 mM AEBSF and 12 mM o-phenanthroline, and immediately frozen at −80° C. For the ELISA, the samples were brought to room temperature and spun at 5000 rpm for 5 min. Samples ([…]) are incubated in the ELISA plate with […] detection antibody on a shaker at room temperature for 3 h. Wells were then washed 4 times with wash buffer and 100 mL of secondary antibody are added and incubated at room temperature for 30 min. Wells were again washed 4 times with wash buffer and 100 mL of fluorescent substrate solution are added. After 30 minutes of incubation, fluorescent signals are determine on a Gemini reader at ex 460 nm and em 560 nm. The amount of Aβ levels in each sample was determined from a standard curve generated by known concentrations of Aβ peptide run simultaneously with the samples.

[2] = molecular target: T2, γ-secretase (cleavage of Notch) (Homo sapiens, UniProt P49768); experiment: Notch cellular assay (luciferase reporter U2OS cells); settings: for pIC50: U2OS luciferase reporter cells; for Notch Luc/Aβ42: ratio Notch luciferase IC50 to Aβ42 IC50
T2 construct: endogenous in cells; host or cells: U2OS luciferase reporter cells with Tet-on Notch
Procedure: This assay was used to determine if the compounds of interest inhibit the cleavage of Notch by γ-secretase in cells. A U2OS cell line in which the luciferase expression is adjusted by active Notch was used in this assay Notch expression is adjusted using Tet-on promoter. Luciferase reporter U2OS cells are plated at 1000 cells/well in 96 well plates in DMEM containing 100 μg/mL hygromycin, 15 μg/mL blasticidin and 1 μg/mL Tetracycline. Compounds were added 24 h after plating and the cells are lysed 6 days after adding compounds. Luciferase expression was performed using Steady-Glo Luciferase Assay System (Promega).

[3] = molecular target: T3, γ-secretase (Notch cleavage activity) (Homo sapiens, UniProt P49768); experiment: Cleaved Notch1 Sandwich ELISA (SUP-T1 cell line); settings: for pIC50: SUP-T1 cells, 16 h; for Notch Elisa/Aβ42: ratio Notch Elisa IC50 to Aβ42 IC50
T3 construct: endogenous in cells; host or cells: SUP-T1 cells
Procedure: Cleaved Notch1 Sandwich ELISA.
This assay was used to determine if the compounds of interest inhibit the Notch cleavage activity of γ-secretase in SUP-T1 cell line, which endogenously expresses a truncated Notch receptor fragment that is a viable gamma-secretase substrate. The base medium for this cell line is ATCC-formulated RPMI-1640 Medium with fetal bovine serum to a final concentration of 10%. Prepare dilution of SUP-T1 cells in complete growth medium to 1.0×10^6 cells/mL, seed 1.5 mL per well of each cell dilution into a 6-well plate. Collect cells treated with serial diluted compounds in DMSO after 16 h, then using equal amount of protein isolated from samples to measure Notch intracellular cleavage by PathScan® Sandwich ELISA Kit (Cell Signaling Tech 7194S).

SMILES	pIC50 [1]	pIC50 [2]	Notch Luc/Aβ42 [2]	pIC50 [3]	Notch Elisa/Aβ42 [3]	Notch Elisa/Aβ42 ([3]; listed as 59/1231B)	Notch Luc/Aβ42 ([2]; listed as 59/1231B)	Notch Luc/Aβ42 ([2]; listed as 14/1136)
COC(=O)c1ccc(CN(C2CCCCC2C)S(=O)(=O)c2ccc(Cl)cc2)cc1 (centres unmarked) [Example 2, Methyl 4-((4-chloro-N-(2-methylcyclohexyl)phenylsulfonamido)methyl)benzoate]	8.47	5.52	–	–	–	–	–	–
CC[C@@H](C1CCCC1)N(Cc1ccc(C(=O)OC)cc1)S(=O)(=O)c1ccc(Cl)cc1 [Example 21, (S)-Methyl 4-((4-chloro-N-(1-cyclopentylpropyl)phenylsulfonamido)methyl)benzoate]	7.62	4.89	542	–	–	–	–	–
CC1CCCCC1N(Cc1ccc(C(=O)NCCN(C)C)cc1)S(=O)(=O)c1ccc(Cl)cc1 (centres unmarked) [Example 40, 4-((4-Chloro-N-(2-methylcyclohexyl)phenylsulfonamido)methyl)-N-(2-(dimethylamino)ethyl)benzamide]	8.59	5.52	–	–	–	–	–	–
CC1CCCCC1N(Cc1ccc(C(=O)N[C@H](C)CO)cc1)S(=O)(=O)c1ccc(Cl)cc1 (stereo partly drawn) [Example 4, 4-((4-Chloro-N-(2-methylcyclohexyl)phenylsulfonamido)methyl)-N-((R)-1-hydroxypropan-2-yl)benzamide]	9.06 and 9.19 and 9.05	–	2950	6.74 and 6.92	188	–	–	–
O=C(O)c1ccc(CN(C2CCCCC2F)S(=O)(=O)c2ccc(Cl)cc2)cc1 (single isomer, unassigned) [Example 59, 4-((4-Chloro-N-(2-fluorocyclohexyl)phenylsulfonamido)methyl)benzoic acid]	7.22 and 6.71 and 7.00	5.03	–	5.53	–	25	79	–
COC[C@@H](C)NC(=O)c1ccc(CN(C2CCCCC2C)S(=O)(=O)c2ccc(Cl)cc2)cc1 (stereo partly drawn) [Example 14, 4-((4-Chloro-N-(2-methylcyclohexyl)phenylsulfonamido)methyl)-N-((R)-1-methoxypropan-2-yl)benzamide]	9.15	6.52	–	6.15	1014	–	–	433
CC1CCCCC1N(Cc1ccc(C(=O)NCCC(=O)O)cc1)S(=O)(=O)c1ccc(Cl)cc1 (centres unmarked) [Example 36, 3-(4-((4-Chloro-N-(2-methylcyclohexyl)phenylsulfonamido)methyl)benzamido)propanoic acid]	7.09	5.34	57	–	–	–	–	–
CC1CCCCC1N(Cc1ccc(C(=O)NCC(F)(F)F)cc1)S(=O)(=O)c1ccc(Cl)cc1 (centres unmarked) [Example 54, 4-((4-Chloro-N-(2-methylcyclohexyl)phenylsulfonamido)methyl)-N-(2,2,2-trifluoroethyl)benzamide]	8.58	6.24	220	–	–	–	–	–
O=C(O)c1ccc(CN(C2CCCC(C(F)(F)F)C2)S(=O)(=O)c2ccc(Cl)cc2)cc1 (centres unmarked) [Example 51, 4-((4-Chloro-N-(3-(trifluoromethyl)cyclohexyl)phenylsulfonamido)methyl)benzoic acid]	7.21	5.49	52	–	–	–	–	–
CN(C)CCNC(=O)c1ccc(CN(C2CCCCC2F)S(=O)(=O)c2ccc(Cl)cc2)cc1.Cl (centres unmarked) [Example 75, 4-((4-Chloro-N-(2-fluorocyclohexyl)phenylsulfonamido)methyl)-N-(2-(dimethylamino)ethyl)benzamide hydrochloride]	7.48 and 7.15	–	–	5.38	80	–	–	–
CC1CCCCC1N(Cc1ccc(C(=O)NCCC(F)(F)F)cc1)S(=O)(=O)c1ccc(Cl)cc1 (centres unmarked) [Example 55, 4-((4-Chloro-N-(2-methylcyclohexyl)phenylsulfonamido)methyl)-N-(3,3,3 trifluoropropyl)benzamide]	8.37	5.96	256	–	–	–	–	–
O=C(O)c1ccc(CN(C2CCCCC2(F)F)S(=O)(=O)c2ccc(Cl)cc2)cc1 (centres unmarked) [Example 76, 4-((4-Chloro-N-(2,2-difluorocyclohexyl)phenylsulfonamido)methyl)benzoic acid]	7.05	–	–	5.30	56	–	–	–
O=C(O)c1ccc(CN(C2CCCCC2C(F)(F)F)S(=O)(=O)c2ccc(Cl)cc2)cc1 (centres unmarked) [Example 68, 4-((4-Chloro-N-(2-(trifluoromethyl)cyclohexyl)phenylsulfonamido)methyl)benzoic acid]	7.59	–	–	6.08	33	–	–	–
C[C@H](CO)NC(=O)c1ccc(CN(C2CCCCC2F)S(=O)(=O)c2ccc(Cl)nc2)cc1 (stereo partly drawn) [Example 65, 4-((6-Chloro-N-(2-fluorocyclohexyl)pyridine-3-sulfonamido)methyl)-N—((R)-1-hydroxypropan-2-yl)benzamide]	7.86	–	–	5.94	84	–	–	–
CN(C)CCNC(=O)c1ccc(CN(C2CCCCC2F)S(=O)(=O)c2ccc(Cl)cc2)cc1 (centres unmarked) [Example 74, 4-((4-Chloro-N-(2-fluorocyclohexyl)phenylsulfonamido)methyl)-N-(2-(dimethylamino)ethyl)benzamide]	6.89	–	–	5.00	78	–	–	–

Continued, values first:

pIC50 [1]	pIC50 [2]	Notch Luc/Aβ42 [2]	pIC50 [3]	Notch Elisa/Aβ42 [3]	Notch Elisa/Aβ42 ([3]; listed as 59/1231B)	Notch Luc/Aβ42 ([2]; listed as 59/1231B)	Notch Luc/Aβ42 ([2]; listed as 14/1136)	SMILES
8.14	4.97	1456	5.67	309	–	–	–	CC1CCCC(N(Cc2ccc(C(=O)N[C@H](C)CO)cc2)S(=O)(=O)c2ccc(Cl)cc2)C1 (stereo partly drawn) [Example 50, 4-((4-Chloro-N-(3-methylcyclohexyl)phenylsulfonamido)methyl)-N—((R)-1-hydroxypropan-2-yl)benzamide]
7.92	–	–	5.97	89	–	–	–	C[C@H](CO)NC(=O)c1ccc(CN(C2CCCC(C(F)(F)F)C2)S(=O)(=O)c2ccc(Cl)nc2)cc1 (stereo partly drawn) [Example 64, 4-((6-Chloro-N-(3-(trifluoromethyl)cyclohexyl)pyridine-3-sulfonamido)methyl)-N—((R)-1-hydroxypropan-2-yl)benzamide]
8.24 and 7.96	–	–	6.17 and 6.07	91	–	–	–	CC1CCCCC1N(Cc1ccc(C(=O)NCCN(C)C)cc1)S(=O)(=O)c1ccc(Cl)cc1 (centres unmarked) [Example 41, 4-((4-Chloro-N-(2-methylcyclohexyl)phenylsulfonamido)methyl)-N-(2-(dimethylamino)ethyl)benzamide hydrochloride]
7.85	–	–	6.06	63	–	–	–	CC1CCCCC1N(Cc1ccc(C#N)cc1)S(=O)(=O)c1ccc(Cl)cc1 (centres unmarked) [Example 78, 4-Chloro-N-(4-cyanobenzyl)-N-(2-methylcyclohexyl)benzenesulfonamide]
8.66	–	–	7.03	44	–	–	–	C[C@@H](CO)NC(=O)c1ccc(CN(C2CCCCC2C(F)(F)F)S(=O)(=O)c2ccc(Cl)cc2)cc1 (stereo partly drawn) [Example 69, 4-((4-Chloro-N-(2-(trifluoromethyl)cyclohexyl)phenylsulfonamido)methyl)-N—((S)-1-hydroxypropan-2-yl)benzamide]
8.08 and 7.89	–	–	6.18	64	–	–	–	CC1CCCCC1N(Cc1ccc(C(=O)NCCN2CCCC2)cc1)S(=O)(=O)c1ccc(Cl)cc1 (centres unmarked) [Example 38, 4-((4-Chloro-N-(2-methylcyclohexyl)phenylsulfonamido)methyl)-N-(2-(pyrrolidin-1-yl)ethyl)benzamide]
